In brackets after ≈: the same amount, converted by molar mass.
Assays:
[1] = test system: E. coli R3 (ATCC 11775); assay: MIC and MBC, microtiter plate technique; format: cell-based; settings: Escherichia coli; for MIC: ATCC11775, 24 h, resazurin; for MBC: ATCC11775, TTC
[2] = target: T1, mushroom tyrosinase (mTYR) (Agaricus bisporus, UniProt C7FF04); assay: Tyrosinase assay with L-DOPA as substrate (absorbance at 475 nm); format: biochemical; settings: 100 µM compound
T1 construct: purchased Sigma-Aldrich (Poznan, Poland); host or cells: Agaricus bisporus (extracted natural enzyme)
Text: Tyrosinase (Tyr) extracted from Agaricus bisporus (mushroom tyrosinase, mTYR) is commonly used as a model enzyme for human Tyr due to its high purity, stability, and commercial availability. It is frequently used in the selection of TYR inhibitors. Following established literature protocols, L-tyrosine and L-DOPA, which serve as substrates for monophenol and diphenol oxidation, respectively, were used to assess the tyrosinase inhibitory activity of synthesized target compounds [21].
Tyrosinase (Tyr) activity was measured using L-DOPA as substrate and phosphate buffer solution (PBS) as blank control, following the method described by Min He et al. (2022) with an ultraviolet spectrophotometer (Carry-300, Agilent Life Sciences and Chemical Analysis, Santa Clara, CA, USA). […] Before the experiment, 2.9 mL of PBS and 0.1 mL of DMSO were used to account for the influence of the background solvent. The inhibitor solution (100 µL), substrate solution (2.8 mL), and Tyr solution (100 µL) were then added to a quartz colorimetric cuvette. After a one-minute mixing period, the absorption spectra of the mixture were continuously recorded at 475 nm using the UV spectrophotometer (Carry-300) for 5 min over a period of every 30 s. The tyrosinase inhibition rate was calculated as follows:Relative enzyme activity (%) = (A1 − A2)/A1 × 100
A1 = Absorbance of L-DOPA and inhibitor.
A2 = Absorbance of L-DOPA, inhibitor, and tyrosinase.

[3] = test system: A. baumannii (ATCC 17978); assay: MIC and MBC, microtiter plate technique; format: cell-based; settings: ATCC17978, Acinetobacter baumannii; for MIC: 24 h, resazurin; for MBC: TTC
[4] = test system: E. coli R2 (ATCC 39544); assay: MIC and MBC, microtiter plate technique; format: cell-based; settings: Escherichia coli; for MBC: ATCC39544; for MIC: ATCC39544, 24 h
[5] = test system: S. aureus (ATCC 23235); assay: microbe, parasite or virus in culture; format: cell-based; settings: Staphylococcus aureus; for MBC: ATCC23235; for MIC: ATCC23235, 24 h
[6] = test system: P. aeruginosa (ATCC 15442); assay: MIC and MBC, microtiter plate technique; format: cell-based; settings: ATCC15442, Pseudomonas aeruginosa; for MIC: 24 h, resazurin; for MBC: TTC
[7] = test system: E. coli R4 (ATCC 39543); assay: MIC and MBC, microtiter plate technique; format: cell-based; settings: Escherichia coli; for MBC: ATCC39543; for MIC: ATCC39543, 24 h
[8] = test system: E. cloacae (ATCC 49141); assay: MIC and MBC, microtiter plate technique; format: cell-based; settings: ATCC49141, Enterobacter cloacae; for MIC: 24 h, resazurin; for MBC: TTC
[9] = test system: E. coli K12 (ATCC 25404); assay: MIC and MBC, microtiter plate technique; format: cell-based; settings: Escherichia coli; for MBC: ATCC25404; for MIC: ATCC25404, 24 h

T1 sequence (C7FF04 1-392 limits assumed): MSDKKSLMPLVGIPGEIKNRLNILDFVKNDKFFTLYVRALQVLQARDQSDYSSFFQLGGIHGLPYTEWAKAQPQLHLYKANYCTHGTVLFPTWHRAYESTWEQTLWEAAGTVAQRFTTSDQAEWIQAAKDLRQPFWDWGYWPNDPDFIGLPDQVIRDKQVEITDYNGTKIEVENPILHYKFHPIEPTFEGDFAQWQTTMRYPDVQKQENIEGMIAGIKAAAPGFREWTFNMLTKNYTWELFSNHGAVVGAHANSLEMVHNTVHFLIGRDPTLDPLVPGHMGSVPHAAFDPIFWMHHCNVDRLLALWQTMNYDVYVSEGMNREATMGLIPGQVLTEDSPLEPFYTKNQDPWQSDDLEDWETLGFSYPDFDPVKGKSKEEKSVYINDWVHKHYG

Compound	MIC [1] [µM]	MBC [1] [µM]	inhibition at 100 µM [2] [%]	MIC [3] [µM]	MBC [3] [µM]	MBC [4] [µM]	MIC [4] [µM]	MBC [5] [µM]	MIC [5] [µM]	MIC [6] [µM]	MBC [6] [µM]	MBC [7] [µM]	MIC [7] [µM]	MIC [8] [µM]	MBC [8] [µM]	MBC [9] [µM]	MIC [9] [µM]
CCCCN(C(=O)Cc1ccccc1)C(C(=O)NCc1ccc(F)cc1)c1ccc(O)c(O)c1 (stereo not drawn) [Compound 5i]	1.92 (≈ 0.892 µg/mL)	2.13 (≈ 0.989 µg/mL)	> 10	0.99 (≈ 0.46 µg/mL)	1.05 (≈ 0.488 µg/mL)	1.16 (≈ 0.539 µg/mL)	1.17 (≈ 0.544 µg/mL)	1.05 (≈ 0.488 µg/mL)	0.99 (≈ 0.46 µg/mL)	1.23 (≈ 0.571 µg/mL)	1.26 (≈ 0.585 µg/mL)	2.51 (≈ 1.17 µg/mL)	2.31 (≈ 1.07 µg/mL)	1.21 (≈ 0.562 µg/mL)	1.27 (≈ 0.59 µg/mL)	1.05 (≈ 0.488 µg/mL)	0.6 (≈ 0.279 µg/mL)
COc1ccc(CN(C(C)=O)C(C(=O)NCc2ccccc2)c2ccc(O)c(O)c2)cc1 (stereo not drawn) [Compound 5j, N-benzyl-2-(3,4-dihydroxyphenyl)-2-(N-(4-methoxybenzyl)acetamido)acetamide]	1.08 (≈ 0.469 µg/mL)	1.28 (≈ 0.556 µg/mL)	–	0.8 (≈ 0.348 µg/mL)	0.85 (≈ 0.369 µg/mL)	1.19 (≈ 0.517 µg/mL)	0.74 (≈ 0.322 µg/mL)	0.74 (≈ 0.322 µg/mL)	0.78 (≈ 0.339 µg/mL)	0.77 (≈ 0.335 µg/mL)	0.82 (≈ 0.356 µg/mL)	1.47 (≈ 0.639 µg/mL)	1.22 (≈ 0.53 µg/mL)	0.76 (≈ 0.33 µg/mL)	0.81 (≈ 0.352 µg/mL)	0.82 (≈ 0.356 µg/mL)	0.26 (≈ 0.113 µg/mL)
COc1ccc(CNC(=O)C(c2ccc(O)c(O)c2)N(Cc2ccc(OC)cc2)C(C)=O)cc1 (stereo not drawn) [Compound 5k, 2-(3,4-dihydroxyphenyl)-N-(4-methoxybenzyl)-2-(N-(4-methoxybenzyl)acetamido)-acetamide]	2.13 (≈ 0.989 µg/mL)	2.58 (≈ 1.2 µg/mL)	–	0.93 (≈ 0.432 µg/mL)	1 (≈ 0.465 µg/mL)	1.27 (≈ 0.59 µg/mL)	1.27 (≈ 0.59 µg/mL)	1.18 (≈ 0.548 µg/mL)	1.18 (≈ 0.548 µg/mL)	1.15 (≈ 0.534 µg/mL)	1.21 (≈ 0.562 µg/mL)	2.82 (≈ 1.31 µg/mL)	2.55 (≈ 1.18 µg/mL)	1.14 (≈ 0.53 µg/mL)	1.26 (≈ 0.585 µg/mL)	0.79 (≈ 0.367 µg/mL)	0.58 (≈ 0.269 µg/mL)
COc1ccc(CN(C(C)=O)C(C(=O)NCc2ccc(F)cc2)c2ccc(O)c(O)c2)cc1 (stereo not drawn) [Compound 5l, 2-(3,4-dihydroxyphenyl)-N-(4-fluorobenzyl)-2-(N-(4-methoxybenzyl)acetamido)-acetamide]	1.64 (≈ 0.742 µg/mL)	2.62 (≈ 1.19 µg/mL)	–	1 (≈ 0.452 µg/mL)	1.03 (≈ 0.466 µg/mL)	1.21 (≈ 0.548 µg/mL)	1.17 (≈ 0.529 µg/mL)	1.28 (≈ 0.579 µg/mL)	1.27 (≈ 0.575 µg/mL)	1.23 (≈ 0.557 µg/mL)	1.26 (≈ 0.57 µg/mL)	2.76 (≈ 1.25 µg/mL)	2.61 (≈ 1.18 µg/mL)	1.23 (≈ 0.557 µg/mL)	1.27 (≈ 0.575 µg/mL)	0.77 (≈ 0.348 µg/mL)	0.64 (≈ 0.29 µg/mL)
CC(=O)N(C1CCCCC1)C(C(=O)NCc1ccccc1)c1ccc(O)c(O)c1 (stereo not drawn) [Compound 5m, N-benzyl-2-(N-cyclohexylacetamido)-2-(3,4-dihydroxyphenyl)acetamide]	1.24 (≈ 0.492 µg/mL)	1.38 (≈ 0.547 µg/mL)	–	0.79 (≈ 0.313 µg/mL)	0.88 (≈ 0.349 µg/mL)	1.31 (≈ 0.519 µg/mL)	0.94 (≈ 0.373 µg/mL)	0.78 (≈ 0.309 µg/mL)	0.75 (≈ 0.297 µg/mL)	0.8 (≈ 0.317 µg/mL)	0.91 (≈ 0.361 µg/mL)	1.53 (≈ 0.607 µg/mL)	0.59 (≈ 0.234 µg/mL)	0.81 (≈ 0.321 µg/mL)	0.89 (≈ 0.353 µg/mL)	0.85 (≈ 0.337 µg/mL)	0.35 (≈ 0.139 µg/mL)
COc1ccc(CNC(=O)C(c2ccc(O)c(O)c2)N(C(C)=O)C2CCCCC2)cc1 (stereo not drawn) [Compound 5n, 2-(N-cyclohexylacetamido)-2-(3,4-dihydroxyphenyl)-N-(4-methoxybenzyl)acetamide]	1.1 (≈ 0.469 µg/mL)	1.3 (≈ 0.554 µg/mL)	–	0.75 (≈ 0.32 µg/mL)	0.79 (≈ 0.337 µg/mL)	1.3 (≈ 0.554 µg/mL)	0.76 (≈ 0.324 µg/mL)	0.83 (≈ 0.354 µg/mL)	0.72 (≈ 0.307 µg/mL)	0.78 (≈ 0.333 µg/mL)	0.82 (≈ 0.35 µg/mL)	1.44 (≈ 0.614 µg/mL)	1.48 (≈ 0.631 µg/mL)	0.8 (≈ 0.341 µg/mL)	0.8 (≈ 0.341 µg/mL)	0.77 (≈ 0.328 µg/mL)	0.39 (≈ 0.166 µg/mL)
CC(=O)N(C1CCCCC1)C(C(=O)NCc1ccc(F)cc1)c1ccc(O)c(O)c1 (stereo not drawn) [Compound 5o, 2-(N-cyclohexylacetamido)-2-(3,4-dihydroxyphenyl)-N-(4-fluorobenzyl)acetamide]	1.01 (≈ 0.419 µg/mL)	1.45 (≈ 0.601 µg/mL)	> 10	0.75 (≈ 0.311 µg/mL)	0.81 (≈ 0.336 µg/mL)	1.23 (≈ 0.51 µg/mL)	0.79 (≈ 0.327 µg/mL)	0.81 (≈ 0.336 µg/mL)	0.74 (≈ 0.307 µg/mL)	0.73 (≈ 0.303 µg/mL)	0.86 (≈ 0.356 µg/mL)	1.47 (≈ 0.609 µg/mL)	1.52 (≈ 0.63 µg/mL)	0.8 (≈ 0.332 µg/mL)	0.84 (≈ 0.348 µg/mL)	0.86 (≈ 0.356 µg/mL)	0.3 (≈ 0.124 µg/mL)
